The NIST ThermoML archive (doi:10.1021/acs.jced.5b00776)

Settings: Wilhelmi plate

O [water]
Settings | surface tension liquid-gas [mN/m]
272.64 K, Metastable liquid | 75.78
273.04 K, Metastable liquid | 75.71
275.06 K, Liquid | 75.41
276.72 K, Liquid | 75.17
280.09 K, Liquid | 74.69
280.34 K, Liquid | 74.65
283.27 K, Liquid | 74.23
286.54 K, Liquid | 73.74
288.33 K, Liquid | 73.46
290.57 K, Liquid | 73.12
293.04 K, Liquid | 72.74
294.13 K, Liquid | 72.58
295.71 K, Liquid | 72.33
297.4 K, Liquid | 72.07
298.42 K, Liquid | 71.91
299.35 K, Liquid | 71.77
300.3 K, Liquid | 71.62
301.78 K, Liquid | 71.39
302.43 K, Liquid | 71.28
303.41 K, Liquid | 71.13
304.45 K, Liquid | 70.96
305.69 K, Liquid | 70.76
306.63 K, Liquid | 70.61
307.99 K, Liquid | 70.39
310.6 K, Liquid | 69.97
313.69 K, Liquid | 69.47
316.02 K, Liquid | 69.07
318.49 K, Liquid | 68.66
323.62 K, Liquid | 67.79
328.1 K, Liquid | 67.03
333.49 K, Liquid | 66.1
337.83 K, Liquid | 65.34
343.49 K, Liquid | 64.33
